Data from PubChem BioAssay (NCI).
Values joined by “and” are separate entries in the source; they are usually repeats but may differ in a detail not shown here. Identical values can stand only once.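 Interpolation was linear, between the two tested concentrations surrounding the appropriate level; five concentrations were tested over 48 hours in 96-well plates. GI50 = concentration required for 50% inhibition of growth. TGI marks complete inhibition of growth.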

What was measured:
Experiment in all cases: inhibition of tumour cell growth, NCI panel, 48 h
[1] = tested on: MALME-3M melanoma
[2] = tested on: SF-268 CNS
[3] = tested on: SK-OV-3 ovarian
[4] = tested on: EKVX NSCLC
[5] = tested on: MOLT-4 leukemia
[6] = tested on: MDA-MB-231 breast
[7] = tested on: HCC-2998 colon
[8] = tested on: UO-31 renal

## Cc1cc(C)c2c(=O)cc(-c3ccc(F)cc3)[nH]c2n1
[1]
  TGI: > 100 µM
[2]
  TGI: > 100 µM
[3]
  TGI: > 100 µM
[4]
  TGI: > 100 µM
[5]
  TGI: > 100 µM
[6]
  TGI: > 100 µM
[7]
  TGI: > 100 µM
[8]
  TGI: 92.4 µM

## OC1CCC(COC(c2ccccc2)(c2ccccc2)c2ccccc2)O1 (configuration not stated)
[1]
  TGI: 42.3 µM
[2]
  TGI: 33.6 µM
[3]
  TGI: 36.6 µM
[4]
  TGI: > 10 µM
[5]
  TGI: 35.2 µM
[6]
  TGI: 32.1 µM
[7]
  TGI: 35.6 µM
[8]
  TGI: 33.2 µM

## O=C(O)c1ccc(NCn2nc(-c3ccccc3O)oc2=S)cc1O
[2]
  GI50: > 100 µM
  TGI: > 100 µM
[4]
  GI50: > 100 µM
  TGI: > 100 µM
[5]
  GI50: 26.1 µM
  TGI: 82.1 µM
[6]
  GI50: 38.9 µM
  TGI: > 100 µM
[7]
  GI50: > 100 µM
  TGI: > 100 µM
[8]
  GI50: > 100 µM
  TGI: > 100 µM

## Cc1cn2c(/C=N/NC3=NCCN3)c(-c3ccc(Cl)c([N+](=O)[O-])c3)nc2s1
[3]
  GI50: 1.53 µM
  TGI: 3.68 µM
[4]
  GI50: 3.07 µM
  TGI: 10.8 µM
[6]
  GI50: 0.778 µM
  TGI: 1.57 µM
[7]
  GI50: 2.12 µM
  TGI: > 50 µM
[8]
  GI50: 0.715 µM
  TGI: 1.44 µM

## N#C/C(=C\c1ccc([N+](=O)[O-])cc1)n1nnc2cc(F)c(F)cc21
[1]
  GI50: 2.08 µM
  TGI: 5.3 µM
[2]
  GI50: 3.13 µM
  TGI: 12.1 µM
[3]
  GI50: 2.85 µM
  TGI: 11.4 µM
[4]
  GI50: 1.7 µM
  TGI: 3.56 µM
[5]
  GI50: 2.97 µM
  TGI: 10.5 µM
[6]
  GI50: 1.97 µM
  TGI: 4.84 µM
[7]
  GI50: 1.67 µM
  TGI: 3.36 µM
[8]
  GI50: 1.25 µM
  TGI: 2.5 µM

## Fc1ccc(-c2nn3c(COc4ccccc4Cl)nnc3s2)cc1Oc1ccccc1
[1]
  GI50: 26.2 µM
  TGI: 68.9 µM
[2]
  GI50: 44.8 µM
  TGI: > 100 µM
[4]
  GI50: 49 µM
  TGI: > 100 µM
[6]
  GI50: 17.8 µM
  TGI: 45.6 µM
[7]
  GI50: 28.6 µM
  TGI: 77.4 µM
[8]
  GI50: 27.1 µM
  TGI: > 100 µM

## CC(=O)NS(=O)(=O)c1ccc(-n2nc(-c3ccccc3)cc2-c2cc(O)ccc2O)cc1
[2]
  GI50: > 100 µM
  TGI: > 100 µM
[4]
  GI50: > 100 µM
  TGI: > 100 µM
[5]
  GI50: > 100 µM
  TGI: > 100 µM
[6]
  GI50: 39.2 µM
  TGI: > 100 µM
[8]
  GI50: > 100 µM
  TGI: > 100 µM

## O=C1/C(=C\c2ccc(Cl)cc2)CN(C(=O)c2ccccc2)C/C1=C\c1ccc(Cl)cc1
[1]
  GI50: 9.17 µM
  TGI: 51.7 µM
[2]
  GI50: 3.74 µM
  TGI: 17.5 µM
[3]
  GI50: 4.64 µM
  TGI: 32.3 µM
[5]
  GI50: 4.25 µM
  TGI: > 100 µM
[6]
  GI50: 2.47 µM
  TGI: 6.9 µM
[7]
  GI50: 2.03 µM
  TGI: 3.97 µM
[8]
  GI50: 1.83 µM
  TGI: 5.33 µM

## CCOC(=O)Nc1ccc2c3c(cccc13)-c1ccccc1-2
[2]
  GI50: 33.3 µM
  TGI: > 100 µM
[3]
  GI50: 9.18 µM
  TGI: > 100 µM
[4]
  GI50: 2.18 µM
  TGI: > 100 µM
[5]
  GI50: 8.5 µM
  TGI: > 100 µM
[6]
  GI50: 2.58 µM
  TGI: > 100 µM
[7]
  GI50: 9.56 µM
  TGI: > 100 µM
[8]
  GI50: 2.59 µM
  TGI: > 100 µM

## C#CCOCCCC(=O)O
[3]
  TGI: > 100 µM
[4]
  TGI: > 100 µM
[5]
  TGI: > 100 µM
[6]
  TGI: > 100 µM

## CCOC(=O)Nc1nc(-c2ccccc2)c(C)s1
[1]
  TGI: > 100 µM
[2]
  TGI: > 100 µM
[3]
  TGI: > 100 µM
[4]
  TGI: > 100 µM
[5]
  TGI: 45.5 µM
[6]
  TGI: > 100 µM
[7]
  TGI: > 100 µM
[8]
  TGI: > 100 µM

## O=C(NCCNc1nccc(-c2c(-c3ccc(F)cc3)nc3sccn23)n1)Nc1cccc(C(F)(F)F)c1
[2]
  GI50: 12.2 µM
  TGI: 41.1 µM
[3]
  GI50: 2.67 µM
  TGI: 11.9 µM
[4]
  GI50: 4.69 µM
  TGI: 30.6 µM
[5]
  GI50: 6.3 µM
  TGI: > 100 µM
[6]
  GI50: 3.28 µM
  TGI: 10.1 µM
[7]
  GI50: 5.21 µM
  TGI: 17.7 µM
[8]
  GI50: 2.94 µM
  TGI: 16 µM

## Nc1ncnc2occ(-c3ccc(NC(=O)Nc4cc(C(F)(F)F)ccc4F)cc3)c12
[1]
  GI50: 7.15 µM and 4.35 µM
  TGI: 17.6 µM and 12 µM
[2]
  GI50: 4.68 µM and 2.34 µM
  TGI: 12.5 µM and 8.02 µM
[3]
  GI50: 8.24 µM and 4.19 µM
  TGI: 25 µM and 12.6 µM
[4]
  GI50: 5.12 µM and 3.97 µM
  TGI: 16.6 µM and 13.2 µM
[5]
  GI50: 7.47 µM and 3.7 µM
  TGI: 23.6 µM and 14.4 µM
[6]
  GI50: 7.93 µM and 3.8 µM
  TGI: 23.1 µM and 12.4 µM
[7]
  GI50: 8.02 µM and 3.98 µM
  TGI: 19 µM and 8.87 µM
[8]
  GI50: 4.72 µM and 1.48 µM
  TGI: 14.1 µM and 7.88 µM

## COc1cc2c3c(n(CCCNC(C)(C)CO)c(=O)c2cc1OC)-c1cc2c(cc1C3=O)OCO2
[1]
  GI50: 14.8 µM
  TGI: 51.1 µM
[2]
  GI50: 3.81 µM
  TGI: 56.6 µM
[3]
  GI50: 17.9 µM
  TGI: > 68.2 µM
[4]
  GI50: 16.6 µM
  TGI: 42.7 µM
[5]
  TGI: 0.11 µM
[6]
  GI50: 1.23 µM
  TGI: 7 µM
[7]
  GI50: 1.39 µM
  TGI: 7.87 µM
[8]
  GI50: 1.96 µM
  TGI: > 55.4 µM

## CSc1nc(SC)c2c(C)cn(Cc3ccccc3)c2n1
[1]
  TGI: > 100 µM
[2]
  TGI: > 100 µM
[3]
  TGI: > 100 µM
[4]
  TGI: > 100 µM
[5]
  TGI: > 100 µM
[6]
  TGI: > 100 µM
[7]
  TGI: > 100 µM
[8]
  TGI: > 100 µM

## O=C(O)c1cc(C(=O)C(=O)c2cc(C(=O)O)c(O)c3ccccc23)c2ccccc2c1O
[1]
  TGI: > 100 µM
[2]
  TGI: > 100 µM
[3]
  TGI: > 100 µM
[4]
  TGI: > 100 µM
[6]
  TGI: > 100 µM
[7]
  TGI: > 100 µM
[8]
  TGI: > 100 µM

## COc1cc2cc(Oc3ccc(NC(=O)Nc4ccc(F)c(C(F)(F)F)c4)cc3)c(C)nc2cc1OCCN1CCOCC1
[1]
  GI50: 1.57 µM
  TGI: 3.24 µM
[2]
  GI50: 3.66 µM
  TGI: 19.8 µM
[3]
  GI50: 3.76 µM
  TGI: 26.7 µM
[4]
  GI50: 2.53 µM
  TGI: 20.7 µM
[5]
  GI50: 1.86 µM
  TGI: 11.4 µM
[6]
  GI50: 2.83 µM
  TGI: 9.02 µM
[7]
  GI50: 5.34 µM
  TGI: 16.7 µM
[8]
  GI50: 1.71 µM
  TGI: 10.6 µM

## CCCC(c1cc(C(C)(C)C)c(O)cc1C)c1cc(C(C)(C)C)c(O)cc1C
[1]
  TGI: 9.78 µM
[2]
  TGI: 15.1 µM
[3]
  TGI: 12.4 µM
[4]
  TGI: 7.75 µM
[5]
  TGI: 5.41 µM
[6]
  TGI: 9.57 µM
[7]
  TGI: 3.3 µM
[8]
  TGI: 11.2 µM

## O=P1(O)c2ccccc2CSCc2ccccc21
[2]
  TGI: > 100 µM
[3]
  TGI: > 100 µM
[4]
  TGI: > 100 µM
[5]
  TGI: > 100 µM
[6]
  TGI: > 100 µM
[7]
  TGI: > 100 µM
[8]
  TGI: > 100 µM
